Source: the supplement of paper PMC10307832

Tests used:
Assay in all cases: relative viability (nuclei count vs DMSO), 5 days (fraction); higher = more cells survive
A-427 = system: A-427
How it was run: (§1)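 Five library-drug doses in √10 steps were combined with a fixed anchor-drug dose, or a single drug was given alone, by pin tool to lung cancer cell lines in 1536-well plates the day after seeding. Nuclei were stained and counted after 5 days. Relative viability is the nuclei count in treated wells over that in vehicle wells, taken as the median of duplicate plates.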

LC-2-ad = system: LC-2-ad
How it was run: as §1

HCC-15 = system: HCC-15
How it was run: as §1

NCI-H358 = system: NCI-H358
How it was run: as §1

NCI-H1975 = system: NCI-H1975
How it was run: as §1

RERF-LC-KJ = system: RERF-LC-KJ
How it was run: as §1

NCI-H2228 = system: NCI-H2228
How it was run: as §1

PC-3 [JPC-3] = system: PC-3 [JPC-3]
How it was run: as §1

NCI-H2126 = system: NCI-H2126
How it was run: as §1

LXF-289 = system: LXF-289
How it was run: as §1

HOP-62 = system: HOP-62
How it was run: as §1

NCI-H1755 = system: NCI-H1755
How it was run: as §1

NCI-H647 = system: NCI-H647
How it was run: as §1

NCI-H2342 = system: NCI-H2342
How it was run: as §1

NCI-H2347 = system: NCI-H2347
How it was run: as §1

HCC-78 = system: HCC-78
How it was run: as §1

SK-LU-1 = system: SK-LU-1
How it was run: as §1

NCI-H522 = system: NCI-H522
How it was run: as §1

NCI-H1734 = system: NCI-H1734
How it was run: as §1

SW 1573 = system: SW 1573
How it was run: as §1

NCI-H1792 = system: NCI-H1792
How it was run: as §1

NCI-H1915 = system: NCI-H1915
How it was run: as §1

SMILES: CC(=O)O[C@@]12CO[C@@H]1C[C@H](O)[C@@]1(C)C(=O)[C@H](O)C3=C(C)[C@@H](OC(=O)[C@H](O)[C@@H](NC(=O)OC(C)(C)C)c4ccccc4)C[C@@](O)([C@@H](OC(=O)c4ccccc4)[C@H]21)C3(C)C [Docetaxel] + CC(=O)Nc1cccc(-n2c(=O)n(C3CC3)c(=O)c3c(Nc4ccc(I)cc4F)n(C)c(=O)c(C)c32)c1 [Trametinib] (partner 0.02 µM)
- relative viability (A-427; first compound 0.0002 µM): 0.765
- relative viability (A-427; first compound 0.000632 µM): 0.775
- relative viability (A-427; first compound 0.002 µM): 0.552
- relative viability (A-427; first compound 0.006325 µM): 0.388
- relative viability (A-427; first compound 0.02 µM): 0.216
- relative viability (LC-2-ad; first compound 0.0002 µM): 0.886
- relative viability (LC-2-ad; first compound 0.000632 µM): 0.737
- relative viability (LC-2-ad; first compound 0.002 µM): 0.345
- relative viability (LC-2-ad; first compound 0.006325 µM): 0.297
- relative viability (LC-2-ad; first compound 0.02 µM): 0.226
- relative viability (HCC-15; first compound 0.0002 µM): 0.401
- relative viability (HCC-15; first compound 0.000632 µM): 0.313
- relative viability (HCC-15; first compound 0.002 µM): 0.193
- relative viability (HCC-15; first compound 0.006325 µM): 0.247
- relative viability (HCC-15; first compound 0.02 µM): 0.159
- relative viability (NCI-H358; first compound 0.0002 µM): 0.167
- relative viability (NCI-H358; first compound 0.000632 µM): 0.138
- relative viability (NCI-H358; first compound 0.002 µM): 0.124
- relative viability (NCI-H358; first compound 0.006325 µM): 0.0884
- relative viability (NCI-H358; first compound 0.02 µM): 0.083
- relative viability (NCI-H1975; first compound 0.0002 µM): 0.386
- relative viability (NCI-H1975; first compound 0.000632 µM): 0.263
- relative viability (NCI-H1975; first compound 0.002 µM): 0.241
- relative viability (NCI-H1975; first compound 0.006325 µM): 0.167
- relative viability (NCI-H1975; first compound 0.02 µM): 0.148
- relative viability (RERF-LC-KJ; first compound 0.0002 µM): 0.767
- relative viability (RERF-LC-KJ; first compound 0.000632 µM): 0.816
- relative viability (RERF-LC-KJ; first compound 0.002 µM): 0.39
- relative viability (RERF-LC-KJ; first compound 0.006325 µM): 0.217
- relative viability (RERF-LC-KJ; first compound 0.02 µM): 0.142
- relative viability (NCI-H2228; first compound 0.0002 µM): 0.529
- relative viability (NCI-H2228; first compound 0.000632 µM): 0.233
- relative viability (NCI-H2228; first compound 0.002 µM): 0.202
- relative viability (NCI-H2228; first compound 0.006325 µM): 0.188
- relative viability (NCI-H2228; first compound 0.02 µM): 0.121
- relative viability (PC-3 [JPC-3]; first compound 0.0002 µM): 0.684
- relative viability (PC-3 [JPC-3]; first compound 0.000632 µM): 0.701
- relative viability (PC-3 [JPC-3]; first compound 0.002 µM): 0.604
- relative viability (PC-3 [JPC-3]; first compound 0.006325 µM): 0.431
- relative viability (PC-3 [JPC-3]; first compound 0.02 µM): 0.279
- relative viability (NCI-H2126; first compound 0.0002 µM): 0.543
- relative viability (NCI-H2126; first compound 0.000632 µM): 0.471
- relative viability (NCI-H2126; first compound 0.002 µM): 0.403
- relative viability (NCI-H2126; first compound 0.006325 µM): 0.31
- relative viability (LXF-289; first compound 0.0002 µM): 0.648
- relative viability (LXF-289; first compound 0.000632 µM): 0.673
- relative viability (LXF-289; first compound 0.002 µM): 0.335
- relative viability (LXF-289; first compound 0.006325 µM): 0.18
- relative viability (LXF-289; first compound 0.02 µM): 0.109
- relative viability (HOP-62; first compound 0.0002 µM): 0.328
- relative viability (HOP-62; first compound 0.000632 µM): 0.446
- relative viability (HOP-62; first compound 0.002 µM): 0.355
- relative viability (HOP-62; first compound 0.006325 µM): 0.32
- relative viability (NCI-H1755; first compound 0.0002 µM): 0.766
- relative viability (NCI-H1755; first compound 0.000632 µM): 0.743
- relative viability (NCI-H1755; first compound 0.002 µM): 0.555
- relative viability (NCI-H1755; first compound 0.006325 µM): 0.415
- relative viability (NCI-H1755; first compound 0.02 µM): 0.381
- relative viability (NCI-H647; first compound 0.0002 µM): 0.331
- relative viability (NCI-H647; first compound 0.000632 µM): 0.361
- relative viability (NCI-H647; first compound 0.002 µM): 0.178
- relative viability (NCI-H647; first compound 0.006325 µM): 0.118
- relative viability (NCI-H647; first compound 0.02 µM): 0.0816
- relative viability (NCI-H2342; first compound 0.0002 µM): 0.898
- relative viability (NCI-H2342; first compound 0.000632 µM): 0.836
- relative viability (NCI-H2342; first compound 0.002 µM): 0.567
- relative viability (NCI-H2342; first compound 0.006325 µM): 0.672
- relative viability (NCI-H2342; first compound 0.02 µM): 0.483
- relative viability (NCI-H2347; first compound 0.0002 µM): 0.243
- relative viability (NCI-H2347; first compound 0.000632 µM): 0.349
- relative viability (NCI-H2347; first compound 0.002 µM): 0.262
- relative viability (NCI-H2347; first compound 0.006325 µM): 0.271
- relative viability (NCI-H2347; first compound 0.02 µM): 0.229
- relative viability (HCC-78; first compound 0.0002 µM): 0.751
- relative viability (HCC-78; first compound 0.000632 µM): 0.73
- relative viability (HCC-78; first compound 0.002 µM): 0.502
- relative viability (HCC-78; first compound 0.006325 µM): 0.446
- relative viability (HCC-78; first compound 0.02 µM): 0.371
- relative viability (SK-LU-1; first compound 0.0002 µM): 0.518
- relative viability (SK-LU-1; first compound 0.000632 µM): 0.468
- relative viability (SK-LU-1; first compound 0.002 µM): 0.411
- relative viability (SK-LU-1; first compound 0.006325 µM): 0.281
- relative viability (SK-LU-1; first compound 0.02 µM): 0.223
- relative viability (NCI-H522; first compound 0.0002 µM): 0.79
- relative viability (NCI-H522; first compound 0.000632 µM): 0.723
- relative viability (NCI-H522; first compound 0.002 µM): 0.676
- relative viability (NCI-H522; first compound 0.006325 µM): 0.42
- relative viability (NCI-H522; first compound 0.02 µM): 0.389
- relative viability (NCI-H1734; first compound 0.0002 µM): 0.615
- relative viability (NCI-H1734; first compound 0.000632 µM): 0.54
- relative viability (NCI-H1734; first compound 0.002 µM): 0.351
- relative viability (NCI-H1734; first compound 0.006325 µM): 0.337
- relative viability (NCI-H1734; first compound 0.02 µM): 0.198
- relative viability (SW 1573; first compound 0.0002 µM): 0.467
- relative viability (SW 1573; first compound 0.000632 µM): 0.307
- relative viability (SW 1573; first compound 0.002 µM): 0.165
- relative viability (SW 1573; first compound 0.006325 µM): 0.192
- relative viability (SW 1573; first compound 0.02 µM): 0.108
- relative viability (NCI-H1792; first compound 0.0002 µM): 0.377
- relative viability (NCI-H1792; first compound 0.000632 µM): 0.338
- relative viability (NCI-H1792; first compound 0.002 µM): 0.31
- relative viability (NCI-H1792; first compound 0.006325 µM): 0.142
- relative viability (NCI-H1792; first compound 0.02 µM): 0.0842
- relative viability (NCI-H1915; first compound 0.0002 µM): 0.3
- relative viability (NCI-H1915; first compound 0.000632 µM): 0.288
- relative viability (NCI-H1915; first compound 0.002 µM): 0.228
- relative viability (NCI-H1915; first compound 0.006325 µM): 0.151
- relative viability (NCI-H1915; first compound 0.02 µM): 0.0803
